Reference: a melting point compilation (Tetko et al.; mined from patent text by program, amines drawn as free bases though some values may be those of a salt)
Residues, ends and D or L forms follow the SMILES beside them. *: point of attachment. Tos = Cc1ccc(S(=O)(=O)*)cc1

SMILES | melting point [°C]
O=C(O)c1cc(=O)c2cc3c(=O)cc(C(=O)O)[nH]c3c(Cl)c2[nH]1 | > 310
O=C(NC1=NN(c2ccc(C(=O)C(F)(F)F)cc2)C(c2ccccc2)C1)C(F)(F)F (stereo unspecified) | 197 to 198
CCCCc1csc2ccc([N+](=O)[O-])cc12 | 82 to 83
CC(=O)OCC1OC(OCC(C)=CCN2C(=O)c3ccccc3C2=O)C(OC(C)=O)C(OC(C)=O)C1OC(C)=O (stereo unspecified) | 104 to 105
N#Cc1ccc2sc(CO)cc2c1 | 78 to 79
CCCNC(=O)C(CC)Cc1ccc2c(c1)c(Cc1ccc(C(=O)O)cc1OC)cn2CCC (stereo unspecified) | 85 to 97
COc1cc2c(cc1OC)C1(C3OCCO3)CNCC2O1 (stereo unspecified) | 107 to 109
CC(C)(CO)C1CCN(CC#Cc2cc(C(F)(F)F)cc(C(F)(F)F)c2)CC1 | 85 to 87
Cc1c(C(=O)O)cnn1-c1nc(-c2ccc(C(F)(F)F)cc2)cs1 | 273 to 274
COc1cc2c(cc1C(F)(F)F)N(C(=O)Nc1cncc(-c3c(F)cccc3F)c1)CC2 | 217 to 219
N#CC1(N2CCC(O)CC2)CCSCC1 | 79 to 81
COC(=O)CCC(=O)c1ccc(O)cc1 | 115 to 116
CCCc1nc2c(N)nc3ccccc3c2n1CC1(O)CCC1 | 228 to 229
Cc1ccc(S(=O)(=O)N2CCC[C@H]2C(=O)N[C@@H](CC(N)=O)C(=O)O)cc1 (Tos-Pro-Asn-OH) | 178 to 180
CC(C)(CC(=O)C(=O)Nc1cc2c(cc1Br)C(=O)OC2)c1ccccc1 | 148 to 150
CCC(=O)OCC(=O)C1(OC(=S)CC)CCC2C3CC(C)C4=CC(=O)C=CC4(C)C3C(O)CC21C (stereo unspecified) | 117 to 119
CCOc1n[nH]c(=O)n1C1CC1 | 144 to 145
O=C(O)c1cc2nc(-c3ccccc3)nn2cc1F | > 250
CCCCCCCCCCCCNC(=O)CS(=O)(=O)Nc1c(C(C)C)cccc1C(C)C | 83 to 85
O=C(CCCN1CCCCC1)c1ccc2oc3ccc(C(=O)CCCN4CCCCC4)cc3c2c1 | 70 to 71
Cc1c(C(=O)Nc2ccc(N3CCC(N4CCOCC4)CC3)c(C#N)c2)cnn1-c1ccccc1Cl | 218
CCO[C@H]1c2ccc3c(nc(C)n3C)c2N[C@H](c2ccccc2)[C@H]1O | 170
FC(F)(F)c1n[nH]c2ccc(Br)cc12 | 168 to 169
COC(=O)c1ccc(C=O)s1 | 79
COc1cc(C(=O)O)ccc1Cc1cn(C)c2ccc(C(=O)N(C)CC3CCCC3)cc12 | 112 to 114
Oc1cc(Cl)ccc1Br | 56
COC(=O)C(C)Oc1ccc(Oc2cnc3cc(Cl)c(Cl)cc3n2)cc1 (stereo unspecified) | 100 to 105
N#Cc1nc(-c2cnn(-c3c(Cl)cc(C(F)(F)F)cc3Cl)c2Br)[nH]c1C#N | 167 to 170

SMILES | melting point [°C]
CC(C)Nc1cccnc1N1CCN(C(=O)c2cc3cc(NS(=O)(=O)N4CCOCC4)ccc3[nH]2)CC1 | 210 to 212
Cc1cc(C)cc(C(=O)NC(=S)Nc2c(O)cc(C)c(Br)c2C)c1 | 164 to 166
CC(C)(C)C(=O)NCCc1cccs1 | 79 to 80
CCOC(=O)/C=C1\C[C@@H]2c3cccc4[nH]cc(c34)C[C@H]2N(C)C1 | 170 to 171
O=Cc1ccc(Sc2nc3c(F)c(F)c(F)cc3[nH]2)o1 | 152
O=C(O)c1ccc(OC(F)F)c(OC2CCCC2)c1 | 126 to 128
CCN(CC)Cc1cc(O)ccc1O | 114
CCCc1nc(-c2cccnc2)cnc1Cl | 207 to 209
S=c1n(-c2ccc(Cl)cc2Cl)nc2n1CCCC2 | 118 to 120
N#CC1CN(C(=O)[C@H](NC(=O)c2c[nH]c3ncc(-c4ccccc4)nc23)C2CC2)C1 | 200 to 202
CCc1cc(C(C)=O)nn1-c1ccc([N+](=O)[O-])cc1 | 93 to 95
CC1(C)CCC(=O)Nc2cc(Nc3ncc(Cl)c(Nc4ccc(N5CCOCC5)cc4OCCC#N)n3)ccc21 | 150 to 156
CCCC(CCC)CCCC1COCCN1CCCCCO (stereo unspecified) | 59 to 60
O=C(Nc1ccccc1Oc1ccccc1-c1nnn[nH]1)c1ccc(OCc2ccc3ccccc3n2)cc1 | 224 to 226
CCCc1c(O)c(C(C)=O)cc(C(C)=O)c1NCC | 114 to 115
CCOC(=O)c1cnc2nc(OCC)ccc2c1Cl | 72 to 75
Cc1ccc(S(=O)(=O)OC2CCCC2)cc1 | < 30
COC(=O)c1nc(NCC(O)CO)cnc1[N+](=O)[O-] (stereo unspecified) | 107 to 109
O=C(CCc1cnoc1-c1ccccc1)Nc1cnccn1 | 163 to 164
COc1cc2c(cc1OC)N(C)C(=O)CN=C2c1cccc(-c2ccc(Cl)cc2)c1 | 131
Cc1nc(-c2c(Cl)cc(O)cc2Cl)oc1C | 228 to 229
CCCCC(CC(=O)Nc1cc(C(N)=O)ccc1C(C)(C)C)c1ccc(OC)cc1OCC (stereo unspecified) | 184 to 186
COc1ccccc1-c1cc(NC(=O)C2CCNCC2)ncn1 | 279 to 280
CS(=O)(=O)Oc1ccc(=O)[nH]n1 | 148
CN(C)CCc1ccc(NC=O)c2[nH]ncc12 | 210 to 211
Cc1c(C)c2c(c(C)c1NC(=O)CC(C)(C)C)C(=O)C(C)(C)O2 | 155 to 156
CO[C@@H]1c2ccn3c(C)c(C)nc3c2N[C@H](c2ccccc2)[C@H]1OC(=O)c1ccccc1 | 92 to 93

Next, values leading:

melting point [°C] | SMILES
160 to 161 | CC(c1nnnn1C)C(O)(c1ccc(F)cc1)c1ccc(F)cc1 (stereo unspecified)
173 to 175 | CCCC(c1ccccc1)c1c(O)c2c(oc1=O)CCCCCC2 (stereo unspecified)
124 to 126 | OC1Cc2ccccc2Sc2cc(Cl)c(Cl)cc21 (stereo unspecified)
290 to 295 | O=c1[nH]c2cc(Br)c3c(c2[nH]c1=O)CN(CCc1ccccc1)CC3
166 to 167 | COc1ccc2c(c1)sc1ncc(C(O)CCc3ccccc3)n12 (stereo unspecified)
50 to 51 | CCCOC1=Nc2ccc(Cl)cc2C(=CCCN)N1CCC
54 to 56 | O=C=Nc1ccc(Cl)cc1[N+](=O)[O-]
195 | COc1ccc(-c2nn(C)c(=O)c3ccccc23)cc1Cl
50 to 56 | COc1ccc(NS(=O)(=O)c2ccc(N3CCC(=O)CC3)cc2)cc1OC
204 to 206 | CC(=O)Nc1ccc2cccc(Oc3cc(-c4ccc(C(F)(F)F)cc4)ncn3)c2n1
192 to 194 | O=c1c2cc(O)ccc2oc2cccc(NCCN3CCCC3)c12
127 to 128 | O=C(C=Cc1cccc(-c2ccc(O)cc2)c1)NO
171 to 172 | COc1ccc(Cn2nc(-c3ccc(OC)cc3)c(-c3ccc(OC)cc3)cc2=O)cc1
124 to 125 | CCCNC(=C1Sc2ccccc2C1=O)c1ccccc1
93 to 94 | c1ccc(CSc2nc3cnccn3n2)cc1
120 | O=C1NC(=O)C(=Cc2ccc(OCCN3C(=O)SC(c4ccccc4)C3=O)cc2)S1 (stereo unspecified)
129 | Cc1ccc(C2CCCN2S(=O)(=O)c2ccc(Cl)cc2)cc1 (racemic)
175 to 177 | Cc1ccc(S(=O)(=O)N(C)c2ccc(Cl)cc2C(=O)O)cc1
118 | COc1ccc(F)c(/C=C/CN2C(=O)c3ccccc3C2=O)c1
162 to 163 | Cc1cc(CCC(=O)OC(C)(C)C)nc(-c2nc(=O)c3ccc(Cl)cc3s2)c1
123 to 126 | CCN1C(=O)C(C)(C)C(=O)N(C)c2cc(CN(CCn3ccc4oc(COC)cc4c3=O)Cc3cccnc3C)ccc21
141 to 143 | CS(=O)(=O)c1ccc(-n2nc(C(F)(F)F)nc2-c2ccc(Br)cc2)cn1
142 to 145 | COC(=O)C(C)(SC)c1ccc(N2C(=O)c3ccccc3C2=O)cc1 (stereo unspecified)

melting point [°C] | SMILES
100 to 101 | CCOC(=O)c1ccc(/C=C(\C)c2ccc3c(c2)C(C)(C)CCN3C)cc1
93.9 | OC(c1cccc(Br)c1)C1c2ccccc2CCc2ccccc21 (stereo unspecified)
171 to 172 | CC1CC(=O)N(c2cc(Cc3n[nH]c(=O)c4ccccc34)ccc2F)C1=O (stereo unspecified)
62 to 62.5 | CCOC(=O)C(OCc1ccc(-c2ccc(Cl)cc2)cc1)(C(F)(F)F)C(F)(F)F
157 to 159 | Cc1oc(-c2ccc(SC(F)(F)F)cc2)nc1CCOc1ccc(CN(O)C(N)=O)cc1
142 to 144 | O=C1COc2cc3c(cc21)C1(CO3)C(=O)N(CC2CCCO2)c2ccccc21 (stereo unspecified)
107 to 111 | C[C@@H]1Cc2ccsc2[C@H](C)N1CCNC(=O)c1ccc(NS(=O)(=O)c2ccc(Cl)cc2)cc1 (relative stereo)
177 | CN1C(=O)CNC(c2cccc(Cl)c2)c2cc(C(=O)c3ccc(Cl)cc3)ccc21 (stereo unspecified)
129 to 131 | CN(C1CCN(Cc2ccc(F)cc2)CC1)S(=O)(=O)c1ccc(Nc2nccc(Nc3ccc(F)cc3)n2)cc1
97 to 98 | Cc1oc(-c2ccccc2)nc1COc1ccc(Cn2cc(CCC(=O)O)c(C(C)C)n2)cc1
161 to 162 | Nc1c(C(=O)CCC(=O)O)cccc1C(=O)c1ccccc1
> 260 | Cc1cc(C2C3=C(CCS3)NC3=C2C(=O)CCC3)ccc1F (stereo unspecified)
180 | CCN(CC)C(=O)c1ccc(-c2nc(=O)c3ccccc3s2)cc1
265 to 270 | O=C1NC(=S)N/C1=C\c1c[nH]c2ncc(-c3ccccc3)cc12
128 to 129 | CC(=O)Sc1ccc(C#Cc2ccc(C=O)cc2)cc1
214 to 216 | CC(=O)Nc1ccc2c(c1)NC(=O)C2CC(C)C (stereo unspecified)
215 to 225 | O=C1NC(=O)C(=Cc2ccc(SCCc3ccc(Cl)cc3)cc2)S1
102 to 105 | CCCCc1nc2cccc(C(=O)OCOC(=O)C(C)(C)C)c2n1Cc1ccc(-c2ccccc2-c2nnn[nH]2)cc1
189 to 190 | COc1ccc(C)cc1NC(=O)Nc1ccc(N2CCN(C(=O)Oc3ccc(CCO)cc3Cl)CC2)cc1
176 to 178 | Cc1ccc(-c2ccc(C(CCC(=O)O)=NO)cc2)cc1
> 220 | COc1ccc(-c2cnc3[nH]c4ccccc4c3c2)cc1
329 to 332 | O=c1[nH]c2cc(Cl)ccc2c(O)c1-c1cccc([N+](=O)[O-])c1
130 to 133 | Fc1ccc(-c2cc(Cl)c3cc(F)ccc3n2)cc1
